Consider two molecules from patent US20220347323A1, “Positron Emission Tomography Guided Delivery of Mitochondral Complex I Inhibitors” (priority 2019, published 2022).

One data set relates to A549 and RH2 cells. Put plainly: Cell viability of human ADC (A549) and SCC (RH2) cell lines. Format: cell-based. The settings on record: A549 vs RH2, 48 hr, low doses. The source says: (§1) Experiments were repeated twice.
Data set [1] deals with Kras/Lkb1 lung tumors. The data set can be described thus: Treatment of Kras/Lkb1 mice, tumor burden. It counts as in vivo, mouse.
Data set [2] deals with Kras/Lkb1 lung tumors. Put plainly: Ki67 staining of TTF1+ and CK5+ Kras/Lkb1 tumors after treatment. Format: in vivo, mouse. The settings on record: 15 mg/kg/day, 12 days.
The test system of data set [3] is A549 cells. Put plainly: Mitochondrial membrane potential (ΔΨ) by TMRE flow cytometry, A549. Format: cell-based, human. The settings on record: A549, short-term treatment 3 hr. As to the method: Experiments were conducted by analyzing TMRE fluorescence using flow cytometry. […] Cells were resuspended in 0.5 ml DMEM with 5% FBS containing different concentrations of phenformin or oligomycin or FCCP as indicated in figure legends. […] Cells were washed twice in phenol red free DMEM and cellular fluorescence was acquired with a BD LSRII analyzer at UCLA Flow Cytometry Core. Data was analyzed with Flowing Software.
In general terms: In flow cytometry, cells or beads pass a laser one at a time.

For data set [4], the system named is Kras/Lkb1 lung tumors. Put plainly: 18FBnTP PET of lung tumors in Kras/Lkb1 GEMMS before and after treatment. It counts as in vivo, mouse. The following applies: 5 days, vs vehicle. An excerpt: We performed studies with the genetically engineered mouse model of lung cancer using Kras-Lox-Stop-Lox-G12D; Lkb1 Lox/Lox; Rosa26-Lox-Stop-Lox-Luc mice (KL) as described previously [Ref. 33]. Briefly, lung tumors were induced by intranasal administration of 5×10^5 transduction units of Lenti-PGK-Cre (Cat. #FCT071, Kerafast,) as previously described [Ref. 9, 33]. Lentiviral delivery of Cre recombinase to KL mice leads to near 100% development of lung adenocarcinomas [Ref. 36]. KL mice that were inhaled with LentiCre were used in studies with Phenformin treatment. For studies where mice were imaged with both ^18FBnTP and ^18F-FDG probes, KL mice were inhaled with Adenoviral Cre, which leads to development of both ADC and SCC tumors. For all treatments, KL mice were imaged with ^18FBnTP and sorted into two groups based on tumor maximum percent injected dose per gram (%ID/g) values, so that two groups would have similar maximum %ID/g values. Treatment was initiated on the same day or on the following day after ^18FBnTP imaging. Mice were treated with 125 mg/kg/day phenformin for 5 days or 15 mg/kg/day IACS-010759 for 12 days. The drugs were delivered by oral gavage. All experimental procedures that were performed on mice were approved by the UCLA Animal Research Committee (ARC). Both male and female mice were used in all experiments and no preference in mouse gender was given for any of the studies.
In order to reduce variability between mice imaged with ^18FBnTP, maximum percent injected dose per gram (%ID/g) for each tumor was normalized to maximum %ID/g of heart as indicated in the figures. For waterfall plots in FIG. 2m and FIGS. 8e-8f, we calculated % change in the uptake of the ^18FBnTP probe post-treatment relative to pre-treatment using maximum %ID/g of the tumor that was normalized to maximum %ID/g of the heart for each mouse.

The nature of data set [5]: Phenformin quantification in lung tumors by LC/MS. Format: in vivo, mouse. The following applies: 100-200 mg/kg oral gavage, 5 days, vs vehicle. As to the method: Tumors were homogenized with a Tissue Master (Omni international) in 1 ml chilled 80% Methanol. Tumor suspensions were spun down at 4° C. for 5 min at 17,000g, and the top layer taken as extracted metabolites. The volume equivalent of 1 mg of tumor was transferred into glass vials and the samples were dried with a EZ2-Elite lyophilizer (Genevac). Dried metabolites were re-suspended in 100 μl of 50%:50% acetonitrile (ACN):dH20 solution; 10 μl of these suspensions were injected per analysis. Samples were run on a Vanquish (Thermo Scientific) UHPLC system with mobile phase A (5 mM NH4AcO, pH 9.9) and mobile phase B (ACN). […] The UHPLC was coupled to a Q-Exactive (Thermo Scientific) mass analyzer running in positive mode at 3.5 kV with an MS1 resolution of 70,000. Metabolites were identified using exact mass (MS1), retention time, and fragmentation patterns (MS2) at normalized collision energy (NCE) 35. Quantification was performed via area under the curve (AUC) integration of MS1 ion chromatograms with the MZmine 2 software package. For the quantification of absolute moles of phenformin, one tumor from the vehicle group was selected to provide a representative tumor small molecular matrix. […]

For a further data set, the system named is Kras/Lkb1 tumors. The following applies: cited from earlier work.
Data set [6] has as its system A549 cells. The data set can be described thus: Respirometry (Seahorse OCR), A549. Format: cell-based, human. The settings on record: A549, 1 mM, 45 min. As to the method: Experiments were conducted on a Seahorse XF96 Extracellular Flux Analyzer (Agilent Technologies) in order to measure oxygen consumption rate (OCR) and extracellular acidification rate (ECAR). […] On the day of the experiment, assay medium (Seahorse XF Base Medium supplemented with 2 mM L-glutamine, 1mM Pyruvate and 10 mM glucose) was freshly prepared. The cells were washed twice with assay medium and brought to a final volume of 175 μL per well. The XF96 plate was placed in a 37° C. incubator without CO2 for 30 minutes prior to loading the plate into the instrument. Injection of compounds during the assay included: the mitochondrial ATP Synthase inhibitor oligomycin (final concentration of 2 μM); the chemical uncoupler, FCCP (final concentration of 1 μM); and the Complex I inhibitors rotenone (final concentrations 2 μM) and phenformin (final concentration 1 mM) and Complex III inhibitor antimycin A (final concentrations of 2 μM). […] Activity of complex I was measured in permeabilized cells using XF PMP assay where complex I dependent OCR was measured by determining OCR in the presence of pyruvate and malate (as substrates for complex I) before and after addition of rotenone (complex I inhibitor).

For data set [7], the system named is A549 cells. The data set can be described thus: In vitro 18FBnTP uptake assay, A549. It counts as cell-based, human. The following applies: A549, 1 mM, 3 hr.
The test system of data set [8] is Kras/Lkb1 lung tumors. Put plainly: Cleaved caspase 3 and Ki67 staining of Kras/Lkb1 tumors. Format: in vivo, mouse. The following applies: short-term 5 day treatment. As to the method:
After the fixation step in 10% neutral buffered formalin overnight, lungs were transferred to 70% ethanol and further processing and embedding was done by the TPCL at UCLA. The following antibodies were used: anti-CK5 (EP1601Y) (abcam, ab52635 1:100), anti-TTF1 (8G7G3/1) (Dako, 1:1000), anti-Ki67 (SP6) (Thermo-Scientific, RM-9106-SO 1:200), anti-Glut1 (alpha-diagnostic, GT11-A, 1:400). Slides were scanned onto a ScanScope AT (Aperio Technologies Inc.). Digital slides were analyzed with Definiens and QuPath software.

Data set [9] deals with mouse adenocarcinoma and squamous cell carcinoma cell lines. The data set can be described thus: Cell viability of mouse adenocarcinoma and squamous cell carcinoma cell lines. Format: cell-based. The following applies: 48 hr, low doses.
From the text: as §1

“Also recorded” adds a separate entry of the source.

`Cc1nc(-c2nc(-c3ccc(OC(F)(F)F)cc3)no2)nn1Cc1cccc(N2CCC(S(C)(=O)=O)CC2)c1` [IACS-010759]: the “sensitivity (cell viability) of lung ADC line vs SCC line” value in the data set on A549 and RH2 cells is on record as “more sensitive”. Further, the “tumor burden (percent of lung area occupied by tumor)” value in the data set with Kras/Lkb1 lung tumors [1] (15 mg/kg/day oral gavage, 12 days, vs vehicle) is “significant reduction in tumor burden”. Further, the “sensitivity of 18FBnTP POS tumors to complex I inhibition” value in the data set on Kras/Lkb1 lung tumors [1] (Kras/Lkb1 mice) is “sensitive”. In addition, in the data set with Kras/Lkb1 lung tumors [2], the “Ki67 positive cells in TTF1+ ADCs” value was “significant reduction in Ki67 positive cells” and the “response of CK5+ SCCs (Ki67)” value was “refractory”.
As for `[H]/N=C(/N)N/C(=N/[H])NCCc1ccccc1` [phenformin], the “ΔΨ measured by TMRE staining” value in the data set on A549 cells [3] is reported as “significantly reduced ΔΨ in a dose dependent manner”. Moreover, the “sensitivity (cell viability) of lung ADC line vs SCC line” value was “more sensitive” in the data set on A549 and RH2 cells; “more sensitive” in data set [9]. Moreover, the “18FBnTP uptake in lung tumors post-treatment” value in the data set on Kras/Lkb1 lung tumors [4] (125 mg/kg/day oral gavage) is given as “significant reduction; also recorded: suppresses”. Moreover, the “18FBnTP uptake in lung tumors, three independent experiments” value with Kras/Lkb1 lung tumors [4] (125 mg/kg/day) was “significant reduction”. The “change in 18FBnTP uptake post-treatment to pre-treatment” value with Kras/Lkb1 lung tumors [4] (125 mg/kg/day) is “significant drop in tracer uptake”. Further, in data set [5], the “phenformin in lung tumor tissue by mass spectrometry” value is given as “significant increase in phenformin in tumors”. In addition, the “cellular apoptosis after longer treatment” value in the data set on Kras/Lkb1 tumors (4-8 weeks treatment, Ref. 9,19) is reported as “resulted in cellular apoptosis”. Moreover, in the data set with Kras/Lkb1 tumors (Ref. 9), the “sensitivity of Kras/Lkb1 tumors” value was “sensitive”. In addition, the “response of lung SCC tumors from Kras/Lkb1 mice” value in the data set on Kras/Lkb1 tumors (Ref. 19,33) is reported as “refractory”. Further, the “cellular OXPHOS (OCR) by respirometry” value with A549 cells [6] is “significant reduction of cellular OXPHOS”. Further, in the data set with A549 cells [7], the “18FBnTP uptake (gamma counter)” value is listed as “significantly reduced”. Besides, in the data set on Kras/Lkb1 lung tumors [8], the “cleaved caspase 3 and Ki67 staining (apoptosis, proliferation)” value is “no evidence of phenformin induced apoptosis or reduced cell viability; also recorded: does not induced changes in proliferation or apoptosis”.
